Numbering of substitutions follows the chain as printed. Entries after “also recorded” stand apart in the source; their conditions may differ.
Assays:
[1] = test system: human iPSC-derived microglia (WT and TREM2 KO); assay: In vitro lipid storage assay, lipidomics by LC/MS, iPSC microglia treated with myelin; assay type: cell-based; conditions: myelin 25 ug/mL 48 h, LXR agonist 10 uM; for cholesteryl ester (CE) accumulation: WT and TREM2 KO iPSC microglia
Method: Lipid analyses were performed by liquid chromatography (Shimadzu Nexera X2 system, Shimadzu Scientific Instrument, Columbia, Md., USA) coupled to electrospray mass spectrometry (QTRAP 6500+, Sciex, Framingham, Mass., USA). For each analysis, 5 μL of sample was injected on a BEH C18 1.7 μm, 2.1×100 mm column (Waters Corporation, Milford, Mass., USA) using a flow rate of 0.25 mL/min at 55° C. For positive ionization mode, mobile phase A consisted of 60:40 acetonitrile/water (v/v) with 10 mM ammonium formate+0.1% formic acid; mobile phase B consisted of 90:10 isopropyl alcohol/acetonitrile (v/v) with 10 mM ammonium formate+0.1% formic acid. For negative ionization mode, mobile phase A consisted of 60:40 acetonitrile/water (v/v) with 10 mM ammonium acetate; mobile phase B consisted of 90:10 isopropyl alcohol/acetonitrile (v/v) with 10 mM ammonium acetate. The gradient was programmed as follows: 0.0-8.0 min from 45% B to 99% B, 8.0-9.0 min at 99% B, 9.0-9.1 min to 45% B, and 9.1-10.0 min at 45% B. Electrospray ionization was performed in either positive or negative ion mode applying the following settings: curtain gas at 30; collision gas was set at medium; ion spray voltage at 5500 (positive mode) or 4500 (negative mode); temperature at 250° C. (positive mode) or 600° C. (negative mode); ion source Gas 1 at 50; ion source Gas 2 at 60. Data acquisition was performed using Analyst 1.6.3 (Sciex) in multiple reaction monitoring mode (MRM), with the following parameters: dwell time (msec) and collision energy (CE) for each species reported in Table 2 (positive mode) or Table 3 (negative mode); declustering potential (DP) at 80; entrance potential (EP) at 10 (positive mode) or −10 (negative mode); and collision cell exit potential (CXP) at 12.5 (positive mode) or −12.5 (negative mode). Lipids were identified based on their retention times and MRM properties of commercially available reference standards (Avanti Polar Lipids, Birmingham, Ala., USA). Quantification was performed using MultiQuant 3.02 (Sciex). Metabolites were normalized to either total protein amount or cell number. […]

TREM2 [2] = molecular target: T1, TREM2 (Homo sapiens, UniProt Q9NZC2); assay: pSYK AlphaLISA in TREM2/DAP12-expressing stable HEK293 cells; assay type: cell-based; parameters: expressed in transfected cells; conditions: for binding to and signaling via TREM2 (overall conclusion): conclusion from pSYK and SPR studies; for pSYK levels: liposomes 30% test lipid/70% PC, or oxLDL, vs DAP12-only cells and buffer control
T1 sequence (Q9NZC2 19-230): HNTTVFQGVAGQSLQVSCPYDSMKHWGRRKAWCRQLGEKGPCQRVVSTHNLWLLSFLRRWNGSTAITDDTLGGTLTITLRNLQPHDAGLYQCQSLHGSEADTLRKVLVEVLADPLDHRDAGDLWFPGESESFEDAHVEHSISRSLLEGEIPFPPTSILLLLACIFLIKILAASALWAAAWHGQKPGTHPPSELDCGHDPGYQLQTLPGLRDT
T1 sequence (O43914 22-113 partner): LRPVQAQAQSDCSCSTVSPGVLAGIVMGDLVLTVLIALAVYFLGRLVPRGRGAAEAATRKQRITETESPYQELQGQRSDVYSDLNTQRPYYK
Method: (§1) 70 molar percent DOPC (1,2-dioleoyl-sn-glycero-3-phosphocholine, Avanti Polar Lipids) and 30 molar percent of one test lipid were combined in chloroform in a glass vial and dried under a stream of N2 gas for 1-2h, or until completely dry. Test lipids included sulfatide (Avanti), POPS (Avanti), SM (Avanti), PI (Avanti), GalCer (Avanti), PE (Echelon Biosciences), and free cholesterol (Echelon Biosciences). The lipid mixture was re-suspended in HBSS (1-2 mg/mL final lipid concentration) and vortexed for 2-3 min. Subsequently, the lipid suspension was bath sonicated for 10 minutes. For surface plasmon resonance experiments, liposomes were extruded 10 times using an Avanti mini-extruder constructed with one 100 nm pore size membrane to form small unilamellar vesicles.
HEK293 cells were transfected with a pBudCE4.1 Mammalian Expression Vector (ThermoFisher) expressing wildtype human TREM2 and DAP12, and DAP12 alone. Stable expressing clones were selected and the cell surface TREM2 expression was evaluated by flow cytometry with APC-conjugated rat-anti-human/mouse-TREM2 monoclonal (R&D MAB17291). The highest wild type TREM2 expressing clone was selected for expansion. The clones stably expressing DAP12 were analyzed by Western blot.
(§2) Activation of TREM2-dependent pSYK signaling was measured using a commercial AlphaLISA assay (PerkinElmer). HEK293 cells: Two days before the experiment, HEK293 cells stably overexpressing TREM2 and DAP12 were plated at 40,000 cells/well on 96 well poly-D-lysine-coated plate. Differentiated human macrophage and BMDM were plated at 100,000 cells/well on tissue-culture treated 96-well plates. Cells were washed once with HBSS, then 50 μL of liposome mixture was added per well. For competition experiments, hTREM2-ECD or TREM1-his (Novoprotein Scientific) was incubated with liposomes for 1 hour at room temperature before adding to cells. 5 μg/mL human-specific mouse anti-TREM2 (Abnova) or 15 μg/mL mouse-specific sheep anti-TREM2 (R&D Systems) was added to each experiment as a positive control with side-by-side isotype controls, 5 μg/mL mouse IgG3 (R&D Systems) and 15 μg/mL polyclonal sheep IgG (R&D Systems), respectively. The cell plate was then transferred to a 37° C. incubator for 5 minutes. The liposome solution was discarded and 40 uL lysis buffer (Cell Signaling Technologies, CST). Lysate was incubated at 4 C for 30 min, then either frozen at −80 C or immediately carried forward to the alpha-LISA assay. Lysates were assayed using the standard protocol for the PerkinElmer pSYK AlphaLISA kit. 10 μL of lysate/well was transferred to a white opaque 384 well Optiplate (PerkinElmer). 5 μL of Acceptor Mix (containing the working solution of acceptor beads) was added per well followed by sealing of plates with foil seals and incubation 1 hour at room temperature. 5 μL of Donor Mix (containing the working solution of donor beads) was added to each well under reduced light conditions. Plates were again sealed and incubated 1 hour at room temperature. Plates were read using AlphaLISA settings on a PerkinElmer EnVision plate reader.

hTREM2 = molecular target: T2, hTREM2 (Homo sapiens, UniProt Q9NZC2); assay: Lipid binding analysis using surface plasmon resonance, hTREM2 ECD; conditions: for Response Units at the highest analyte concentration: 30% test lipid/70% PC liposomes
T2 construct: The ecto domain (residues 19-172) of TREM2 was sub cloned in the pRK vector; secretion signal from mouse Ig kappa chain V-III (amino acids 1-20) (N); made in house; host or cells: Expi293F cells (secreted, purified from the media by Ni-NTA and SEC)
T2 sequence (Q9NZC2 19-172): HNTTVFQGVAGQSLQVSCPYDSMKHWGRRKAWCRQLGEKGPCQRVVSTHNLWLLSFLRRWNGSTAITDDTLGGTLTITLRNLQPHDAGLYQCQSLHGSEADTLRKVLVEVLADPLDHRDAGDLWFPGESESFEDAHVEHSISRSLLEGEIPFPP
Method: as §1
The ecto domain (residues 19-172) of TREM2 was sub cloned in the pRK vector with the secretion signal from mouse Ig kappa chain V-III, amino acids 1-20 at the N-terminal region and a 6×-His tag at the C-terminal region. Expi293F™ cells were transfected using the Expi293™ M Expression System Kit according to the manufacturer's instructions and the media supernatant was harvested 96 hr post transfection. Harvested media was supplemented with 1M imidazole pH 8.0 to a final concentration 10 mM, filtered, and loaded on to HisPur™ Ni-NTA Resin equilibrated with load buffer (20 mM Tris pH 8.0, 150 mM NaCl and 10 mM Imidazole). Nonspecifically bound proteins were washed with load buffer supplemented with 50 and 100 mM imidazole and TREM2 ecto domain was eluted with 20 mM Tris pH 8.0, 150 mM NaCl and 200 mM Imidazole. […] Elute fractions were analyzed by SDS PAGE and further characterized by analytical size exclusion chromatography and the intact protein mass determination.
The binding analysis was performed using Series S Sensor chip L1 and Biacore T200 instrument (GE Healthcare) at 25° C. […] Recombinant hTREM2-ECD or hTREM2-R74H-ECD proteins were diluted in PBS (0, 0.19, 0.56, 1.7, 5, and 15 μM) and injected over both flow cells for 60 seconds at 30 μl/min, and dissociation was monitored for additional 2 minutes. […]

hTREM2 R47H = molecular target: T3, hTREM2 R47H (Homo sapiens, UniProt Q9NZC2, R47H); assay: Lipid binding analysis using surface plasmon resonance, hTREM2 R47H ECD; conditions: for Response Units at the highest analyte concentration: 30% test lipid/70% PC liposomes; for Kd: 30% test lipid/70% PC liposomes on L1 chip, 25° C., steady-state; for faster off-rate of R47H variant vs hTREM2: SPR kinetic analysis
T3 construct: The ecto domain (residues 19-172) of TREM2 was sub cloned in the pRK vector; secretion signal from mouse Ig kappa chain V-III (amino acids 1-20) (N); made in house; host or cells: Expi293F cells (secreted, purified from the media by Ni-NTA and SEC)
T3 sequence (Q9NZC2 19-172 R47H): T2 sequence (Q9NZC2 19-172) with R29H
Method: as §1
The ecto domain (residues 19-172) of TREM2 was sub cloned in the pRK vector with the secretion signal from mouse Ig kappa chain V-III, amino acids 1-20 at the N-terminal region and a 6×-His tag at the C-terminal region. Expi293F™ cells were transfected using the Expi293™ M Expression System Kit according to the manufacturer's instructions and the media supernatant was harvested 96 hr post transfection. Harvested media was supplemented with 1M imidazole pH 8.0 to a final concentration 10 mM, filtered, and loaded on to HisPur™ Ni-NTA Resin equilibrated with load buffer (20 mM Tris pH 8.0, 150 mM NaCl and 10 mM Imidazole). Nonspecifically bound proteins were washed with load buffer supplemented with 50 and 100 mM imidazole and TREM2 ecto domain was eluted with 20 mM Tris pH 8.0, 150 mM NaCl and 200 mM Imidazole. Eluted protein was pooled and subjected to size exclusion chromatography onto a HiLoad Superdex 75 16/600 column using 1×PBS as the running buffer. Elute fractions were analyzed by SDS PAGE and further characterized by analytical size exclusion chromatography and the intact protein mass determination.
The binding analysis was performed using Series S Sensor chip L1 and Biacore T200 instrument (GE Healthcare) at 25° C. Before coating with lipids, the sensor surfaces were washed with 1 minute injection of 40 μM 3-[(3cholamidopropyl)dimethylammonio]-1-propanesulfonate (CHAPS) and 40 uM of 0-octylglucoside at a flow rate of 30 μl/min. Residual detergent on the sensor surfaces was washed away by 30 second injection of 30% ethanol. 1 mg/ml Sulfatide/DOPC or PS/DOPC small unilamellar vesicles were injected for 15 minutes at 5 μl/min over the second flow cell. First flow cell was coated with DOPC and served as a reference surface. Loosely bound vesicles were washed away with two short pulses (15 s) of 10 mM NaOH at 30 μl/min followed by injection of 0.1 mg/ml bovine serum albumin for 3 minutes to block poorly-coated surface. Recombinant hTREM2-ECD or hTREM2-R74H-ECD proteins were diluted in PBS (0, 0.19, 0.56, 1.7, 5, and 15 μM) and injected over both flow cells for 60 seconds at 30 μl/min, and dissociation was monitored for additional 2 minutes. Between each measurement the lipids surface was regenerated by injection of 10 mM NaOH. Steady-state affinities were obtained by fitting the response at equilibrium against the concentration using Biacore™ T200 Evaluation Software v3.1

TREM2 [3] = molecular target: T1, TREM2; assay: pSYK AlphaLISA in human macrophages; assay type: cell-based; parameters: a system with endogenous expression of TREM2/DAP12; endogenous in cells; host or cells: macrophages differentiated from human peripheral blood monocytes (2-5 donors); conditions: for pSYK levels, titration: liposome or oxLDL titration
Method: as §1
as §2, with “Lysates were assayed using the standard protocol for the PerkinElmer pSYK AlphaLISA kit. 10 μL of lysate/well was transferred to a white opaque 384 well Optiplate (PerkinElmer). 5 μL of Acceptor Mix (containing the working solution of acceptor beads) was added per well followed by sealing of plates with foil seals and incubation 1 hour at room temperature. 5 μL of Donor Mix (containing the working solution of donor beads) was added to each well under reduced light conditions. Plates were again sealed and incubated 1 hour at room temperature.” left out, “reader. […]” for “reader.”

O=C(O)Cc1cccc(OCCCN(Cc2cccc(C(F)(F)F)c2Cl)CC(c2ccccc2)c2ccccc2)c1 [GW3965]
cholesterol levels ([1]; TREM2 KO iPSC microglia): not rescued
cholesteryl ester (CE) accumulation [1]: rescued; also recorded: reduced
cholesteryl ester (CE) accumulation ([1]; listed as GW3695): rescued the accumulation of all CE species measured

galactosylceramide [GalCer]
binding to and signaling via TREM2 (overall conclusion) (TREM2 [2]): did not appear to bind and signal via TREM2

phosphatidylethanolamine [PE]
binding to and signaling via TREM2 (overall conclusion) (TREM2 [2]): did not appear to bind and signal via TREM2

phosphatidylinositol [PI]
binding to and signaling via TREM2 (overall conclusion) (TREM2 [2]): did not appear to bind and signal via TREM2
pSYK levels (TREM2 [2]): significantly increased pSYK levels

phosphatidylserine [PS]
Response Units at the highest analyte concentration (hTREM2): 631 RU
Response Units at the highest analyte concentration (hTREM2 R47H): 267 RU
Kd (hTREM2 R47H): 14 µM
faster off-rate of R47H variant vs hTREM2 (hTREM2 R47H): 2.4 fold
pSYK levels, titration (TREM2 [3]): dose-dependent increases in pSYK levels

sphingomyelin [SM]
binding to and signaling via TREM2 (overall conclusion) (TREM2 [2]): did not appear to bind and signal via TREM2

sulfatide
Response Units at the highest analyte concentration (hTREM2): 704 RU
Kd (hTREM2; 30% test lipid/70% PC liposomes on L1 chip, 25° C., steady-state): 6.8 µM
Response Units at the highest analyte concentration (hTREM2 R47H): 191 RU
Kd (hTREM2 R47H): 20 µM
faster off-rate of R47H variant vs hTREM2 (hTREM2 R47H): 5 fold
binding to and signaling via TREM2 (overall conclusion) (TREM2 [2]): binds and signals via TREM2
pSYK levels (TREM2 [2]): significantly increased pSYK levels
pSYK increase with recombinant TREM2 ECD competition (TREM2 [3]; 3 μM recombinant TREM2-ECD): reduced to baseline levels
pSYK levels, titration (TREM2 [3]): dose-dependent increases in pSYK levels
